Tested on: P. aeruginosa (ATCC 9027)
Experiment: Dynamic Shake Flask (based on ASTM E 2149-01) on treated nonwoven
Type: cell-based
Protocol: The test organisms are grown in 25 mL appropriate broth medium for about 24±2 hours at 37±2° C. in a wrist action shaker. The bacterial culture is then transferred by placing about 100 μL aliquot in 25 mL of broth and grown again for about 24±2 hours at 37±2° C. The organisms are then centrifuged and washed three times with phosphate buffered saline (PBS). The organisms are then suspended in PBS to obtain an inoculum of approximately 1×10^8 CFU/mL.
The test articles and control swatches are exposed to an ultraviolet light source for about 5-10 minutes per side before testing to assure that the swatches are sanitized prior to inoculation with the bacteria. The test materials are brought into contact with a known population of test bacteria from the inoculum for a specified period of time. A sample is then plated at the end of the exposure time to enumerate the surviving bacteria. The log10 reduction form the control material and the original population is calculated using the following formula: Log10 Control*−Log10 CFU/swatch Test Article=Log10 Reduction
[…] This buffer solution contains a chemical to de-activate or “neutralize” the antimicrobial agent to (a) stop the active agent from killing the organisms after the designated time period and (b) to prevent artifacts that may arise from exposing the microorganisms to the antimicrobial in solution rather than solely on the substrate. Because each chemical used as an antimicrobial agent is a little different (ie: cationic, nonionic, metal, etc), a different neutralizer was likely added in each case to shut off the antimicrobial at the desired end point of the experiment. […] The neutralizer employed may be selected from a list that is commonly used in the field. […] Testing Mat.

Measured: Dynamic Shake Flask Log10 Reduction

Polyhexamethylene biguanide [PHMB]
0.07 Log10: Table 18, Spunbond substrate, contact time 1 min | Table 20, SMS substrate, contact time 1 min
0.34 Log10: Table 18, Spunbond substrate, contact time 15 min | Table 20, SMS substrate, contact time 15 min
0.12 Log10: Table 18, Spunbond substrate, contact time 5 min | Table 20, SMS substrate, contact time 5 min
4 Log10: Table 13, Meltblown, contact time 1 min | Table 13, Meltblown, contact time 5 min | Table 13, Meltblown, contact time 15 min | Table 13, SMS, contact time 1 min | Table 13, SMS, contact time 5 min | Table 13, SMS, contact time 15 min | Table 13, Spunbond, contact time 1 min | Table 13, Spunbond, contact time 5 min | Table 13, Spunbond, contact time 15 min
